Laboratory results published in patent US8802597B2, “Herbicidal pyrimidines” (E I du Pont de Nemours and Company, priority 2003, dated 2014).

What was measured:
Assay type in all cases: in vivo
[1] = test system: field bindweed (Convolvulus arvensis); test: Test G pre/postemergence
Source text: (§1) Seeds or nutlets of plant species selected from bermudagrass (Cynodon dactylon), Surinam grass (Brachiaria decumbens), large crabgrass (Digitaria sanguinalis), green foxtail (Setaria viridis), goosegrass (Eleusine indica), johnsongrass (Sorghum halepense), kochia (Kochia scoparia), pitted morningglory (Ipomoea lacunosa), purple nutsedge (Cyperus rotundus), common ragweed (Ambrosia elatior), black mustard (Brassica nigra), guineagrass (Panicum maximum), dallisgrass (Paspalum dilatatum), barnyardgrass (Echinochloa crus-galli), southern sandbur (Cenchrus echinatus), common sowthistle (Sonchus oleraceous), prickly sida (Sida spinosa), Italian ryegrass (Lolium multiflorum), common purslane (Portulaca oleracea), broadleaf signalgrass (Brachiaria platyphylla), common groundsel (Senecio vulgaris), common chickweed (Stellaria media), tropical spiderwort (Commelina benghalensis), annual bluegrass (Poa annua), downy bromegrass (Bromus tectorum), itchgrass (Rottboellia cochinchinensis), quackgrass (Elytrigia repens), Canada horseweed (Conyza canadensis), field bindweed (Convolvulus arvensis), spanishneedles (Bidens bipinnata), common mallow (Malva sylvestris), and Russian thistle (Salsola kali) were planted and treated preemergence with test chemicals formulated in a non-phytotoxic solvent mixture which included a surfactant.
(§2) At the same time, plants selected from these weed species were treated with postemergence applications of some of the test chemicals formulated in the same manner. Plants ranged in height from 2 to 18 cm (1- to 4-leaf stage) for postemergence treatments. Treated plants and controls were maintained in a greenhouse for 12 to 21 days, after which time all species were compared to controls and visually evaluated.
(§3) Plant response ratings, summarized in Table G, are based on a scale of 0 to 100 where 0 is no effect and 100 is complete control. A dash (-) response means no test result.

[2] = test system: green foxtail (Setaria viridis); test: Test G pre/postemergence
Source text: as §1, §2, §3

[3] = test system: itchgrass (Rottboellia cochinchinensis); test: Test G pre/postemergence
Source text: as §1, §2, §3

[4] = test system: southern sandbur (Cenchrus echinatus); test: Test G pre/postemergence
Source text: as §1, §2, §3

[5] = test system: Russian thistle (Salsola kali); test: Test D pre/postemergence; details: scale 0 to 100 (100 = complete control)
In short: (§4)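 Pre: seeds sown, then treated. Post: plants at 1- to 4-leaf stage (2 to 18 cm) sprayed at the same time. Chemicals formulated in a non-phytotoxic solvent mixture including surfactant. After 15 to 25 days under controlled growth conditions, response rated visually from 0 (no effect) to 100 (complete control).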

[6] = test system: catchweed bedstraw (galium; Galium aparine); test: Test D pre/postemergence; details: scale 0 to 100 (100 = complete control)
In short: as §4

[7] = test system: common chickweed (Stellaria media); test: Test D pre/postemergence; details: Preemergence, scale 0 to 100 (100 = complete control)
In short: as §4

[8] = test system: kochia (Kochia scoparia); test: Test D pre/postemergence; details: scale 0 to 100 (100 = complete control)
In short: as §4

[9] = test system: lambsquarters (Chenopodium album); test: Test D pre/postemergence; details: scale 0 to 100 (100 = complete control)
In short: as §4

[10] = test system: pigweed (Amaranthus retroflexus); test: Test D pre/postemergence; details: scale 0 to 100 (100 = complete control)
In short: as §4

[11] = test system: wheat (Triticum aestivum); test: Test D pre/postemergence; details: scale 0 to 100 (100 = complete control)
In short: as §4

[12] = test system: wild buckwheat (Polygonum convolvulus); test: Test D pre/postemergence; details: scale 0 to 100 (100 = complete control)
In short: as §4

[13] = test system: wild mustard (Sinapis arvensis); test: Test D pre/postemergence; details: scale 0 to 100 (100 = complete control)
In short: as §4

[14] = Postemergence, 250 g ai/ha, scale 0 to 100
[15] = Postemergence, 16 g ai/ha, scale 0 to 100
[16] = Postemergence, 31 g ai/ha, scale 0 to 100
[17] = Postemergence, 62 g ai/ha, scale 0 to 100
[18] = Postemergence, 125 g ai/ha, scale 0 to 100
[19] = Preemergence, 16 g ai/ha, scale 0-100
[20] = Preemergence, 31 g ai/ha, scale 0-100
[21] = Preemergence, 62 g ai/ha, scale 0-100
[22] = Preemergence, 125 g ai/ha, scale 0-100
[23] = Preemergence, 250 g ai/ha, scale 0-100

Nc1nc(C2CC2)nc(C(=O)OCc2ccccc2)c1Br [Compound 22, phenylmethyl 6-amino-5-bromo-2-cyclopropyl-4-pyrimidinecarboxylate]
90: Plant response rating, Bindweed, Field [1, 21] | Plant response rating, Bindweed, Field [1, 22]
20: Plant response rating, Foxtail, Green [2, 23] | Plant response rating, Itchgrass [3, 21]
75: Plant response rating, Bindweed, Field [1, 20] | Plant response rating, Foxtail, Green [2, 14] | Plant response rating, Itchgrass [3, 18]
50: Plant response rating, Foxtail, Green [2, 18] | Plant response rating, Itchgrass [3, 17]
95: Plant response rating, Sandbur [4, 14]
25: Plant response rating, Foxtail, Green [2, 17] | Plant response rating, Itchgrass [3, 16]
15: Plant response rating, Foxtail, Green [2, 16] | Plant response rating, Itchgrass [3, 15] | Plant response rating, Sandbur [4, 16]
0: Plant response rating, Foxtail, Green [2, 15] | Plant response rating, Foxtail, Green [2, 19] | Plant response rating, Foxtail, Green [2, 20] | Plant response rating, Foxtail, Green [2, 21] | Plant response rating, Itchgrass [3, 19] | Plant response rating, Itchgrass [3, 20] | Plant response rating, Sandbur [4, 15] | Plant response rating, Sandbur [4, 19] | Plant response rating, Sandbur [4, 20] | Plant response rating, Sandbur [4, 21]
40: Plant response rating, Itchgrass [3, 22] | Plant response rating, Sandbur [4, 17]
100: Plant response rating, Bindweed, Field [1, 14] | Plant response rating, Bindweed, Field [1, 16] | Plant response rating, Bindweed, Field [1, 17] | Plant response rating, Bindweed, Field [1, 18] | Plant response rating, Bindweed, Field [1, 23]
10: Plant response rating, Foxtail, Green [2, 22]
70: Plant response rating, Sandbur [4, 22]
65: Plant response rating, Bindweed, Field [1, 19] | Plant response rating, Itchgrass [3, 23]
85: Plant response rating, Bindweed, Field [1, 15] | Plant response rating, Itchgrass [3, 14] | Plant response rating, Sandbur [4, 18] | Plant response rating, Sandbur [4, 23]

COC(=O)c1nc(-c2ccc(Cl)cc2)nc(N)c1Cl [Compound 58, methyl 6-amino-5-chloro-2-(4-chlorophenyl)-4-pyrimidinecarboxylate]
100: Plant response rating, Galium ([6]; Postemergence, 62 g ai/ha) | Plant response rating, Galium ([6]; Postemergence, 125 g ai/ha) | Plant response rating, Galium ([6]; Postemergence, 250 g ai/ha) | Plant response rating, Galium ([6]; Postemergence, 500 g ai/ha) | Plant response rating, Galium ([6]; Preemergence, 62 g ai/ha) | Plant response rating, Galium ([6]; Preemergence, 125 g ai/ha) | Plant response rating, Galium ([6]; Preemergence, 250 g ai/ha) | Plant response rating, Galium ([6]; Preemergence, 500 g ai/ha) | Plant response rating, Chickweed ([7]; 500 g ai/ha) | Plant response rating, Kochia ([8]; Postemergence, 125 g ai/ha) | Plant response rating, Kochia ([8]; Postemergence, 250 g ai/ha) | Plant response rating, Kochia ([8]; Postemergence, 500 g ai/ha) | Plant response rating, Kochia ([8]; Preemergence, 250 g ai/ha) | Plant response rating, Kochia ([8]; Preemergence, 500 g ai/ha) | Plant response rating, Lambsquarters ([9]; Postemergence, 250 g ai/ha) | Plant response rating, Lambsquarters ([9]; Postemergence, 500 g ai/ha) | Plant response rating, Lambsquarters ([9]; Preemergence, 125 g ai/ha) | Plant response rating, Lambsquarters ([9]; Preemergence, 250 g ai/ha) | Plant response rating, Lambsquarters ([9]; Preemergence, 500 g ai/ha) | Plant response rating, Pigweed ([10]; Postemergence, 125 g ai/ha) | Plant response rating, Pigweed ([10]; Postemergence, 250 g ai/ha) | Plant response rating, Pigweed ([10]; Postemergence, 500 g ai/ha) | Plant response rating, Pigweed ([10]; Preemergence, 125 g ai/ha) | Plant response rating, Pigweed ([10]; Preemergence, 250 g ai/ha) | Plant response rating, Pigweed ([10]; Preemergence, 500 g ai/ha) | Plant response rating, Buckwheat, Wild ([12]; Postemergence, 250 g ai/ha) | Plant response rating, Buckwheat, Wild ([12]; Postemergence, 500 g ai/ha) | Plant response rating, Buckwheat, Wild ([12]; Preemergence, 250 g ai/ha) | Plant response rating, Buckwheat, Wild ([12]; Preemergence, 500 g ai/ha) | Plant response rating, Mustard, Wild ([13]; Postemergence, 62 g ai/ha) | Plant response rating, Mustard, Wild ([13]; Postemergence, 125 g ai/ha) | Plant response rating, Mustard, Wild ([13]; Postemergence, 250 g ai/ha) | Plant response rating, Mustard, Wild ([13]; Postemergence, 500 g ai/ha) | Plant response rating, Mustard, Wild ([13]; Preemergence, 125 g ai/ha) | Plant response rating, Mustard, Wild ([13]; Preemergence, 250 g ai/ha) | Plant response rating, Mustard, Wild ([13]; Preemergence, 500 g ai/ha)
35: Plant response rating, Kochia ([8]; Preemergence, 62 g ai/ha)
70: Plant response rating, Russian Thistle ([5]; Postemergence, 62 g ai/ha) | Plant response rating, Russian Thistle ([5]; Postemergence, 125 g ai/ha) | Plant response rating, Russian Thistle ([5]; Postemergence, 250 g ai/ha) | Plant response rating, Russian Thistle ([5]; Preemergence, 250 g ai/ha) | Plant response rating, Kochia ([8]; Postemergence, 62 g ai/ha) | Plant response rating, Pigweed ([10]; Preemergence, 62 g ai/ha) | Plant response rating, Wheat ([11]; Postemergence, 250 g ai/ha) | Plant response rating, Wheat ([11]; Preemergence, 500 g ai/ha)
60: Plant response rating, Chickweed ([7]; 62 g ai/ha) | Plant response rating, Lambsquarters ([9]; Preemergence, 62 g ai/ha) | Plant response rating, Wheat ([11]; Postemergence, 125 g ai/ha) | Plant response rating, Wheat ([11]; Preemergence, 250 g ai/ha)
40: Plant response rating, Russian Thistle ([5]; Preemergence, 62 g ai/ha) | Plant response rating, Buckwheat, Wild ([12]; Preemergence, 62 g ai/ha)
25: Plant response rating, Wheat ([11]; Preemergence, 62 g ai/ha)
90: Plant response rating, Buckwheat, Wild ([12]; Postemergence, 125 g ai/ha)
55: Plant response rating, Wheat ([11]; Postemergence, 62 g ai/ha)
80: Plant response rating, Russian Thistle ([5]; Postemergence, 500 g ai/ha) | Plant response rating, Lambsquarters ([9]; Postemergence, 62 g ai/ha) | Plant response rating, Pigweed ([10]; Postemergence, 62 g ai/ha) | Plant response rating, Buckwheat, Wild ([12]; Preemergence, 125 g ai/ha)
95: Plant response rating, Kochia ([8]; Preemergence, 125 g ai/ha)
50: Plant response rating, Wheat ([11]; Preemergence, 125 g ai/ha)
85: Plant response rating, Russian Thistle ([5]; Preemergence, 500 g ai/ha) | Plant response rating, Lambsquarters ([9]; Postemergence, 125 g ai/ha) | Plant response rating, Wheat ([11]; Postemergence, 500 g ai/ha)
65: Plant response rating, Russian Thistle ([5]; Preemergence, 125 g ai/ha) | Plant response rating, Buckwheat, Wild ([12]; Postemergence, 62 g ai/ha) | Plant response rating, Mustard, Wild ([13]; Preemergence, 62 g ai/ha)
75: Plant response rating, Chickweed ([7]; 250 g ai/ha)
